# Results from patent US7307062B2, “Method for treating a mental disorder” (priority 2003, dated 2007).
# Entries after “also recorded” stand apart in the source; their conditions may differ.
# Key:
# [1] = system: child with autistic disorder; test: Case history five (autistic disorder); format: in vivo, human
# [2] = system: child with autistic disorder; test: Case history CM (autistic disorder); format: in vivo, human; conditions: clarithromycin
# Excerpt: […] They remained hospitalized for 80 days and suffered from significant medical complications due to their premature birth. […] They have severe delays in fine and gross motor skills. Also, severe delays in receptive and expressive language, consistent with their premature birth. […] […] […] Specific behaviors include irritability and temper tantrums, odd meaningless movements, and odd meaningless vocalizations. […] In spite of the placement of tympanostomy tubes […], […] continued to develop recurrent and persistent otis media untila second set of tubes were inserted approximately six months later. […] Head banging and tantrums stopped.
# [3] = system: person with psychiatric symptoms; test: Case study four (major depressive disorder, obsessive compulsive disorder, atypical psychosis, Crohn's disease); format: in vivo, human
# Excerpt: patient four was a person whose symptoms were consistent with major depressive disorder, obsessive compulsive disorder, and atypical psychosis. Standard anti-psychotic medications were unsuccessful in treating the symptoms. The person also had severe gastrointestinal symptoms and was subsequently diagnosed with Crohn's disease. The person began treatment with prednisone and mesalamine, a standard therapy for Crohn's disease. […] Behavior problems were absent. […] A few months thereafter, the person experienced an acute psychiatric relapse and was admitted to the hospital. A colonoscopy confirmed active lesions in the right colon consistent with Crohn's disease. Treatment with prednisone and mesalamine was initiated for their Crohn's disease, with the prednisone later tapered to 20 mg/day after several months. […] the person was able to return to high school and completed their junior year with high honors.
# [4] = system: child with Childhood Disintegrative Disorder; test: Case history two (childhood disintegrative disorder), metronidazole therapy; format: in vivo, human
# [5] = system: adolescent with ADHD, bipolar and conduct disorder; test: Case study three (ADHD, major depressive disorder, bipolar)
# [6] = system: child with autistic disorder; test: Case study one (autistic disorder), successive antimicrobial and probiotic treatments
# [7] = system: children with regressive onset autism; test: Open-label trial of oral vancomycin in children with regressive-onset autism
# [8] = system: children with autism; test: Vancomycin and retreatment followed by probiotic fecal enema in children with autism lacking peptostreptococcal species; conditions: four children with autism
# [9] = metronidazole standard dosage for 17 days
# [10] = Wilcoxon Signed Ranks Z=−2.9, p=0.003, baseline vs during therapy
# [11] = vancomycin 500 mg/day orally, of ten children studied
smiles,measurement,setting,value
COCC1=C(C(=O)OC(C)OC(=O)OC(C)C)N2C(=O)[C@@H](NC(=O)/C(=N\OC)c3csc(N)n3)[C@H]2SC1 (stereo partly drawn) [cefpodoxime proxetil],behavior as soon as antibiotics were finished,[1]; in vivo,"became more hyper, more easily aggitated, and more aggressive"
same,autistic symptoms while taking the antimicrobial,"[1]; prescribed for ear infection, calmness, improved sleep patterns, more signs for communication",positive improvement in their autistic symptoms
CC[C@H]1OC(=O)[C@H](C)[C@@H](O[C@H]2C[C@@](C)(OC)[C@@H](O)[C@H](C)O2)[C@H](C)[C@@H](O[C@@H]2O[C@H](C)C[C@H](N(C)C)[C@H]2O)[C@](C)(OC)C[C@@H](C)C(=O)[C@H](C)[C@@H](O)[C@]1(C)O [clarithromycin],"behavior, parental report",[2],became more cooperative and was much calmer
same,"head banging and tantrums, parental report",[2],stopped
Cc1ncc([N+](=O)[O-])n1CCO [metronidazole],time of first deterioration in behavior,[3]; after first metronidazole course,two months following the discontinuance
same,"clinical response, first course","[3]; metronidazole 250 mg t.i.d. six weeks, with prednisone and mesalamine","rapid improvement in attitude, mood and rebounded academically"
same,"clinical response, second course","[3]; metronidazole 500 mg t.i.d. for 30 days, within three weeks",dramatic improvement in their psychiatric symptoms
same,"Social behavior, After Metronidazole","[4]; after discontinuation, on Lactobacillus Acidophilus GG",Reverted to baseline
same,"Attitude/State of Mind, After Metronidazole","[4]; after discontinuation, on Lactobacillus Acidophilus GG 20 billion cells per day",Reverted to baseline
same,"Speech, After Metronidazole","[4]; after discontinuation, on Lactobacillus Acidophilus GG, logic and coherence of speech","Initially regressed,"
same,"Ability: Physical or Mental, After Metronidazole","[4]; after discontinuation, on Lactobacillus Acidophilus GG, sleep",Remained somewhat
same,"Speech, After Metronidazole","[4]; after discontinuation, on Lactobacillus Acidophilus GG, voice quality",Reverted to baseline
same,"Ability: Physical or Mental, During Metronidazole",[4]; [9],Fell asleep quickly
same,"Attitude/State of Mind, During Metronidazole",[4]; [9],"Aware of surroundings; also recorded: Relaxed and calm; also recorded: Happy, pleasant"
same,"Social behavior, During Metronidazole","[4]; metronidazole standard dosage for 17 days, aggression towards little brother",No aggression towards
same,"Speech, During Metronidazole","[4]; metronidazole standard dosage for 17 days, logic and coherence of speech","Speech on topic, more"
same,"Social behavior, During Metronidazole","[4]; metronidazole standard dosage for 17 days, peer interaction and play skills",Marked improvement in
same,"Speech, During Metronidazole","[4]; metronidazole standard dosage for 17 days, social communication",Initiated and
same,"Speech, During Metronidazole","[4]; metronidazole standard dosage for 17 days, voice quality","Voice normal, natural,"
same,positive gains after discontinuation,[4]; within a week after the discontinuation of metronidazole,began to deteriorate
same,rating of behavior problems previously severe in degree,[5]; after two months of metronidazole treatment,slight in degree or completely resolved
same,behavior during first week of treatment,[5]; metronidazole 500 mg b.i.d.,highly agitated
same,behavior after discontinuation,[5]; two weeks after metronidazole therapy was discontinued,behavior deteriorated
same,aggressive and hyperactive behaviors,"[6]; metronidazole 250 mg t.i.d. for 21 days, end of treatment",substantially reduced
CN[C@H](CC(C)C)C(=O)N[C@H]1C(=O)N[C@@H](CC(N)=O)C(=O)N[C@H]2C(=O)N[C@H]3C(=O)N[C@H](C(=O)N[C@H](C(=O)O)c4cc(O)cc(O)c4-c4cc3ccc4O)[C@H](O)c3ccc(c(Cl)c3)Oc3cc2cc(c3O[C@@H]2O[C@H](CO)[C@@H](O)[C@H](O)[C@H]2O[C@H]2C[C@](C)(N)[C@H](O)[C@H](C)O2)Oc2ccc(cc2Cl)[C@H]1O [vancomycin],"behavior, unblinded analog rating scale, group as a whole",[7]; [10],improvement
same,"communication, unblinded analog rating scale, group as a whole",[7]; [10],improvement
same,subjects with a day of marked lethargy,[7]; after the hyperactivity period,One
same,"basic blood, stool, and urine tests; physical examinations","[7]; baseline and throughout the study, all children",unremarkable
same,analog ratings at long-term follow-up,"[7]; two to eight months after discontinuance, in all but one child",returned towards baseline
same,"children with improvement during therapy, blinded assessment of coded, paired videotapes","[7]; vancomycin 500 mg/day orally for eight weeks, ten of eleven children scored by blinded psychologist",8 of 10 and eight of ten
same,"children with no change, blinded assessment of coded, paired videotapes",[7]; [11],one
same,"children with possible deterioration, blinded assessment of coded, paired videotapes",[7]; [11],one
same,duration of period of hyperactivity,[7]; within three days of initiating antibiotic treatment,1 to 4 days
same,children with a brief period of hyperactivity,"[7]; within three days of initiating antibiotic treatment, eleven children",six
same,duration of hyperactivity pattern,[6]; emerged three days after initiation of vancomycin,four
same,duration of lethargy,[6]; following hyperactivity pattern on vancomycin,two
same,behavior after vancomycin discontinuation,"[6]; shortly after discontinuation, while taking probiotic agents",behavioral deterioration was observed
same,clinical response,"[6]; vancomycin 125 mg q.i.d., 12-week trial",rapid and dramatic clinical improvement
same,"composite score, Vineland Adaptive Behavior Scales","[6]; vancomycin 125 mg q.i.d., after 8 weeks",19 months
same,"increase of composite score, Vineland Adaptive Behavior Scales","[6]; vancomycin 125 mg q.i.d., first 8 weeks of treatment, baseline 11 months",8 months
same,relapse after discontinuance of antimicrobial therapy,[8],relapsed within two weeks
same,response to treatment,[8]; complete absence of peptostreptococcal species in stool,responded favorably
